Measurements from patent publication US10294275B2, “Site-selective functionalization of glycopeptide antibiotics” (Yale University, priority 2012, dated 2019).
Values after ≈ are worked out from the molar mass of the structure shown.

Key:
Assay type in all cases: cell-based
[1] = test system: vancomycin-resistant enterococci (VanA), MMX 486; experiment: Minimum inhibitory concentration against VRE (VanA); details: for activity against VRE (VanA) strain, in words: compared with vancomycin and teicoplanin
From the text: (§1) The chemistry described above enabled direct synthesis of eleven previously unknown analogs of 3. The minimum inhibitory concentrations (MICs) for the new analogs as antibacterial agents as determined.

[2] = test system: vancomycin-resistant enterococci (VanB), ATCC 51299; experiment: Minimum inhibitory concentration against VRE (VanB)
From the text: as §1

[3] = test system: methicillin-resistant S. aureus, ATCC 43300; experiment: Minimum inhibitory concentration against MRSA; details: for potency against MRSA strain, in words: compared with vancomycin and teicoplanin
From the text: as §1

[4] = test system: vancomycin-susceptible enterococci, ATCC 29212; experiment: Minimum inhibitory concentration against VSE; details: vancomycin-susceptible enterococci, ATCC 29212
From the text: as §1

[5] = test system: methicillin-susceptible S. aureus, ATCC 29213; experiment: Minimum inhibitory concentration against MSSA
From the text: as §1

[6] = MMX 486, vancomycin and teicoplanin resistant
[7] = vancomycin-resistant enterococci, ATCC 51299
[8] = methicillin-resistant S. aureus, ATCC 43300
[9] = methicillin-susceptible S. aureus, ATCC 29213
[10] = compared with vancomycin and teicoplanin

Row | Compound | MIC, VRE (VanA) [1, 6] | MIC, VRE (VanB) [2, 7] | MIC, MRSA [3, 8] | MIC, VSE [4] | MIC, MSSA [5, 9] | activity against VRE (VanA) strain, in words [1] | potency against MRSA strain, in words [3] | potency against MSSA strain, in words [5, 10] | activity against VRE (VanB) strain, in words [2, 10] | MIC ([1]; Enterococcus, VRE, MMX 486, vancomycin and teicoplanin resistant, read-out: MIC, VRE (VanA)) | MIC ([2]; Enterococcus, vancomycin-resistant enterococci, ATCC 51299, read-out: MIC, VRE (VanB)) | MIC ([3]; Staphylococcus aureus, methicillin-resistant S. aureus, ATCC 43300, read-out: MIC, MRSA) | MIC ([4]; read-out: MIC, VSE) | MIC ([5]; Staphylococcus aureus, methicillin-susceptible S. aureus, ATCC 29213, read-out: MIC, MSSA)
1 | CC(=O)N[C@H]1[C@H](O[C@@H]2c3ccc(c(Cl)c3)Oc3cc4cc(c3O[C@@H]3O[C@H](CO)[C@@H](O)[C@H](O)[C@H]3NC(=O)CCCCCCC(C)C)Oc3ccc(cc3Cl)C[C@H]3NC(=O)[C@H](N)c5ccc(O)c(c5)Oc5cc(O)cc(c5)[C@H](NC3=O)C(=O)N[C@H]4C(=O)N[C@H]3C(=O)N[C@@H]2C(=O)N[C@H](C(=O)O)c2cc(O)cc(O[C@H]4O[C@H](CO)[C@@H](O)[C@H](O)[C@@H]4O)c2-c2cc3ccc2O)O[C@H](CO)[C@@H](O)[C@@H]1O [Teicoplanin A2-2, reference compound] | >64 mg/L | 0.25 mg/L (≈ 0.133 µM) | 0.5 mg/L (≈ 0.266 µM) | 0.25 mg/L (≈ 0.133 µM) | 0.5 mg/L (≈ 0.266 µM) | – | – | – | – | – | – | – | – | –
2 | teicoplanin [reference compound] | >64 mg/L | 0.25 mg/L | 0.5 mg/L | 0.25 mg/L | 0.5 mg/L | – | – | – | – | – | – | – | – | –
3 | CC(=O)N[C@H]1[C@H](O[C@@H]2c3ccc(c(Cl)c3)Oc3cc4cc(c3O[C@@H]3O[C@H](CO)[C@@H](O)[C@H](O)[C@H]3NC(=O)CCCCCCC(C)C)Oc3ccc(cc3Cl)C[C@H]3NC(=O)[C@H](N)c5ccc(O)c(c5)Oc5cc(O)cc(c5)[C@H](NC3=O)C(=O)N[C@H]4C(=O)N[C@H]3C(=O)N[C@@H]2C(=O)N[C@H](C(=O)O)c2c(Br)c(O)cc(O[C@H]4O[C@H](CO)[C@@H](O)[C@H](O)[C@@H]4O)c2-c2cc3ccc2O)O[C@H](CO)[C@@H](O)[C@@H]1O [Compound 4] | >64 mg/L | 1 mg/L (≈ 0.511 µM) | 1 mg/L (≈ 0.511 µM) | 0.5 mg/L (≈ 0.255 µM) | 0.5 mg/L (≈ 0.255 µM) | – | – | – | – | – | – | – | – | –
4 | CC(=O)N[C@H]1[C@H](O[C@@H]2c3ccc(c(Cl)c3)Oc3cc4cc(c3O[C@@H]3O[C@H](CO)[C@@H](O)[C@H](O)[C@H]3NC(=O)CCCCCCC(C)C)Oc3ccc(cc3Cl)C[C@H]3NC(=O)[C@H](N)c5ccc(O)c(c5)Oc5cc(c(Br)c(O)c5Br)[C@H](NC3=O)C(=O)N[C@H]4C(=O)N[C@H]3C(=O)N[C@@H]2C(=O)N[C@H](C(=O)O)c2cc(O)c(Br)c(O[C@H]4O[C@H](CO)[C@@H](O)[C@H](O)[C@@H]4O)c2-c2cc3ccc2O)O[C@H](CO)[C@@H](O)[C@@H]1O [Compound 12] | >64 mg/L | 8 mg/L (≈ 3.78 µM) | 2 mg/L (≈ 0.945 µM) | 4 mg/L (≈ 1.89 µM) | 2 mg/L (≈ 0.945 µM) | – | – | – | – | – | – | – | – | –
5 | CC(=O)N[C@H]1[C@H](O[C@@H]2c3ccc(c(Cl)c3)Oc3cc4cc(c3O[C@@H]3O[C@H](CO)[C@@H](O)[C@H](O)[C@H]3NC(=O)CCCCCCC(C)C)Oc3ccc(cc3-c3ccc(-c5ccccc5)cc3)C[C@H]3NC(=O)[C@H](N)c5ccc(O)c(c5)Oc5cc(O)cc(c5)[C@H](NC3=O)C(=O)N[C@H]4C(=O)N[C@H]3C(=O)N[C@@H]2C(=O)N[C@H](C(=O)O)c2cc(O)cc(O[C@H]4O[C@H](CO)[C@@H](O)[C@H](O)[C@@H]4O)c2-c2cc3ccc2O)O[C@H](CO)[C@@H](O)[C@@H]1O [Compound 19] | 8 mg/L (≈ 4.01 µM) | 0.25 mg/L (≈ 0.125 µM) | 4 mg/L (≈ 2 µM) | 0.5 mg/L (≈ 0.25 µM) | 8 mg/L (≈ 4.01 µM) | significant activity | loss of potency | loss of potency | – | – | – | – | – | –
6 | CC(=O)N[C@H]1[C@H](O[C@@H]2c3ccc(c(Cl)c3)Oc3cc4cc(c3O[C@@H]3O[C@H](CO)[C@@H](O)[C@H](O)[C@H]3NC(=O)CCCCCCC(C)C)Oc3ccc(cc3-c3ccoc3)C[C@H]3NC(=O)[C@H](N)c5ccc(O)c(c5)Oc5cc(O)cc(c5)[C@H](NC3=O)C(=O)N[C@H]4C(=O)N[C@H]3C(=O)N[C@@H]2C(=O)N[C@H](C(=O)O)c2c(Br)c(O)cc(O[C@H]4O[C@H](CO)[C@@H](O)[C@H](O)[C@@H]4O)c2-c2cc3ccc2O)O[C@H](CO)[C@@H](O)[C@@H]1O [Compound 16] | >64 mg/L | 0.5 mg/L (≈ 0.251 µM) | 0.5 mg/L (≈ 0.251 µM) | 0.25 mg/L (≈ 0.126 µM) | 0.5 mg/L (≈ 0.251 µM) | – | – | – | – | – | – | – | – | –
7 | CC(=O)N[C@H]1[C@H](O[C@@H]2c3ccc(c(Cl)c3)Oc3cc4cc(c3O[C@@H]3O[C@H](CO)[C@@H](O)[C@H](O)[C@H]3NC(=O)CCCCCCC(C)C)Oc3ccc(cc3Cl)C[C@H]3NC(=O)[C@H](N)c5ccc(O)c(c5)Oc5cc(O)c(-c6ccoc6)c(c5)[C@H](NC3=O)C(=O)N[C@H]4C(=O)N[C@H]3C(=O)N[C@@H]2C(=O)N[C@H](C(=O)O)c2cc(O)cc(O[C@H]4O[C@H](CO)[C@@H](O)[C@H](O)[C@@H]4O)c2-c2cc3ccc2O)O[C@H](CO)[C@@H](O)[C@@H]1O [Compound 14] | >64 mg/L | 0.5 mg/L (≈ 0.257 µM) | 0.25 mg/L (≈ 0.128 µM) | 0.25 mg/L (≈ 0.128 µM) | 0.25 mg/L (≈ 0.128 µM) | – | higher potency | – | – | – | – | – | – | –
8 | CC(=O)N[C@H]1[C@H](O[C@@H]2c3ccc(c(Cl)c3)Oc3cc4cc(c3O[C@@H]3O[C@H](CO)[C@@H](O)[C@H](O)[C@H]3NC(=O)CCCCCCC(C)C)Oc3ccc(cc3-c3ccoc3)C[C@H]3NC(=O)[C@H](N)c5ccc(O)c(c5)Oc5cc(O)c(-c6ccoc6)c(c5)[C@H](NC3=O)C(=O)N[C@H]4C(=O)N[C@H]3C(=O)N[C@@H]2C(=O)N[C@H](C(=O)O)c2cc(O)cc(O[C@H]4O[C@H](CO)[C@@H](O)[C@H](O)[C@@H]4O)c2-c2cc3ccc2O)O[C@H](CO)[C@@H](O)[C@@H]1O [Compound 15] | >32 mg/L | 0.25 mg/L (≈ 0.126 µM) | 0.25 mg/L (≈ 0.126 µM) | 0.12 mg/L (≈ 0.0607 µM) | 0.25 mg/L (≈ 0.126 µM) | – | – | – | – | – | – | – | – | –
9 | CC(=O)N[C@H]1[C@H](O[C@@H]2c3ccc(c(Cl)c3)Oc3cc4cc(c3O[C@@H]3O[C@H](CO)[C@@H](O)[C@H](O)[C@H]3NC(=O)CCCCCCC(C)C)Oc3ccc(cc3-c3ccc(-c5ccccc5)cc3)C[C@H]3NC(=O)[C@H](N)c5ccc(O)c(c5)Oc5cc(O)cc(c5)[C@H](NC3=O)C(=O)N[C@H]4C(=O)N[C@H]3C(=O)N[C@@H]2C(=O)N[C@H](C(=O)O)c2c(Br)c(O)cc(O[C@H]4O[C@H](CO)[C@@H](O)[C@H](O)[C@@H]4O)c2-c2cc3ccc2O)O[C@H](CO)[C@@H](O)[C@@H]1O [Compound 17] | 32 mg/L (≈ 15.4 µM) | 0.5 mg/L (≈ 0.241 µM) | 2 mg/L (≈ 0.963 µM) | 1 mg/L (≈ 0.482 µM) | 4 mg/L (≈ 1.93 µM) | – | – | – | – | – | – | – | – | –
10 | CC(=O)N[C@H]1[C@H](O[C@@H]2c3ccc(c(Cl)c3)Oc3cc4cc(c3O[C@@H]3O[C@H](CO)[C@@H](O)[C@H](O)[C@H]3NC(=O)CCCCCCC(C)C)Oc3ccc(cc3-c3ccoc3)C[C@H]3NC(=O)[C@H](N)c5ccc(O)c(c5)Oc5cc(O)cc(c5)[C@H](NC3=O)C(=O)N[C@H]4C(=O)N[C@H]3C(=O)N[C@@H]2C(=O)N[C@H](C(=O)O)c2cc(O)cc(O[C@H]4O[C@H](CO)[C@@H](O)[C@H](O)[C@@H]4O)c2-c2cc3ccc2O)O[C@H](CO)[C@@H](O)[C@@H]1O [Compound 18] | 32 mg/L (≈ 16.7 µM) | 0.12 mg/L (≈ 0.0628 µM) | 0.25 mg/L (≈ 0.131 µM) | 0.12 mg/L (≈ 0.0628 µM) | 0.25 mg/L (≈ 0.131 µM) | enhancement of activity | – | – | enhancement of activity | – | – | – | – | –
11 | CC(=O)NC[C@H]1CN(c2ccc(N3CCOCC3)c(F)c2)C(=O)O1 [Linezolid, reference compound] | – | – | – | – | – | – | – | – | – | 2 mg/L (≈ 5.93 µM) | 2 mg/L (≈ 5.93 µM) | 4 mg/L (≈ 11.9 µM) | 2 mg/L (≈ 5.93 µM) | 4 mg/L (≈ 11.9 µM)
12 | CC(=O)N[C@H]1[C@H](O[C@@H]2c3ccc(c(Cl)c3)Oc3cc4cc(c3O[C@@H]3O[C@H](CO)[C@@H](O)[C@H](O)[C@H]3NC(=O)CCCCCCC(C)C)Oc3ccc(cc3Cl)C[C@H]3NC(=O)[C@H](N)c5ccc(O)c(c5)Oc5cc(O)c(Br)c(c5)[C@H](NC3=O)C(=O)N[C@H]4C(=O)N[C@H]3C(=O)N[C@@H]2C(=O)N[C@H](C(=O)O)c2cc(O)cc(O[C@H]4O[C@H](CO)[C@@H](O)[C@H](O)[C@@H]4O)c2-c2cc3ccc2O)O[C@H](CO)[C@@H](O)[C@@H]1O [Compound 7] | >64 mg/L | 0.5 mg/L (≈ 0.255 µM) | 1 mg/L (≈ 0.511 µM) | 0.25 mg/L (≈ 0.128 µM) | 0.5 mg/L (≈ 0.255 µM) | – | – | – | – | – | – | – | – | –
13 | CCCCCC/C=C/c1cc2ccc1Oc1cc3cc(c1O[C@@H]1O[C@H](CO)[C@@H](O)[C@H](O)[C@H]1NC(=O)CCCCCCC(C)C)Oc1ccc(cc1Cl)[C@@H](O[C@@H]1O[C@H](CO)[C@@H](O)[C@H](O)[C@H]1NC(C)=O)[C@@H]1NC(=O)[C@H](NC(=O)[C@@H]3NC(=O)[C@H]3NC(=O)[C@@H](C2)NC(=O)[C@H](N)c2ccc(O)c(c2)Oc2cc(O)cc3c2)c2ccc(O)c(c2)-c2c(O[C@H]3O[C@H](CO)[C@@H](O)[C@H](O)[C@@H]3O)cc(O)cc2[C@@H](C(=O)O)NC1=O [Compound 20] | 1 mg/L (≈ 0.511 µM) | 0.25 mg/L (≈ 0.128 µM) | 4 mg/L (≈ 2.05 µM) | 0.5 mg/L (≈ 0.256 µM) | 8 mg/L (≈ 4.09 µM) | quite high (significant) potency | – | – | – | – | – | – | – | –
